Calls of active or inactive are those of the source. The calls are words filed in the database; no cut-off is given here.
How the values were obtained:
[1] = target: T1, Sodium channel protein type 9 subunit alpha (Homo sapiens, UniProt Q15858); test: Displacement of [3H]GX-545 from human Nav1.7 alpha subunit expressed in HEK293 cells co-expressing beta1 subunit by liquid scintillation counting analysis; type: cell-based
[2] = target: T1, Sodium channel protein type 9 subunit alpha; test: Inhibition of human Nav1.7 alpha subunit expressed in HEK293 cells co-expressing beta1 subunit at -60 mV holding potential by whole-cell patch voltage clamp electrophysiology recording; type: cell-based
[3] = Apparent permeability from apical to basolateral side in MDCK1 cells; type: ADME, cell-based, Canis lupus familiaris; conditions: dog, MDCK
[4] = Protein binding in human plasma; type: ADME, cell-free; conditions: read-out: PPB (converted)
[5] = Protein binding in mouse plasma; type: ADME, cell-free; conditions: read-out: PPB (converted)
[6] = Lipophilicity, logD of the compound at pH 7.4; type: physicochemical; conditions: buffer, read-out: logD
[7] = target: Sodium channel protein type 5 subunit alpha (Homo sapiens, UniProt Q14524); test: Inhibition of human Nav1.5 alpha subunit expressed in HEK293 cells co-expressing beta1 subunit at -60 mV holding potential by PatchXpress automated voltage clamp electrophysiology technique; type: cell-based
[8] = target: Sodium channel protein type 2 subunit alpha (Homo sapiens, UniProt Q99250); test: Inhibition of human Nav1.2 alpha subunit expressed in HEK293 cells co-expressing beta1 subunit at -35 mV holding potential by PatchXpress automated voltage clamp electrophysiology technique; type: cell-based
[9] = target: Sodium channel protein type 8 subunit alpha (Homo sapiens, UniProt Q9UQD0); test: Inhibition of human Nav1.6 alpha subunit expressed in HEK293 cells co-expressing beta1 subunit at -35 mV holding potential by PatchXpress automated voltage clamp electrophysiology technique; type: cell-based
[10] = Efflux ratio of apparent permeability across basolateral to apical side over apical to basolateral side in MDCK1 cells; type: ADME, cell-based, Canis lupus familiaris; conditions: dog, MDCK
[11] = Protein binding in rat plasma; type: ADME, cell-free; conditions: read-out: PPB (converted)
[12] = tested on: MDR1; test: Apparent permeability from apical to basolateral side in MDCK1 cells expressing MDR1; type: ADME, cell-based, Canis lupus familiaris; conditions: dog, MDCK-MDR1
[13] = tested on: mouse breast cancer resistant protein (Bcrp); test: Apparent permeability from apical to basolateral side in MDCK-II cells expressing mouse breast cancer resistant protein; type: ADME, cell-based, Canis lupus familiaris; conditions: dog
[14] = species on record: Homo sapiens; test: Inhibition of voltage-gated sodium channel (unknown origin) at 10 uM relative to control
[15] = Half-life in FVB mouse at 1 mg/kg, iv; type: ADME, organism-based; conditions: in vivo, iv, 1 mg/kg
[16] = Volume of distribution at steady state in FVB mouse at 1 mg/kg, iv; type: ADME, organism-based; conditions: in vivo, iv, 1 mg/kg
[17] = Cmax in FVB mouse at 30 mg/kg, po; type: ADME, organism-based; set-up: dose 30 mg/kg, route po; conditions: in vivo
[18] = Clearance in Sprague-Dawley rat at 1 mg/kg, iv; type: ADME, organism-based; conditions: in vivo
[19] = Oral bioavailability in Sprague-Dawley rat at 5 mg/kg; type: ADME, organism-based; conditions: in vivo
[20] = Clearance in Beagle dog at 0.5 mg/kg, iv; type: ADME, organism-based, Canis lupus familiaris; conditions: in vivo
[21] = Half-life in Beagle dog at 1 mg/kg, po; type: ADME, organism-based, Canis lupus familiaris; conditions: in vivo
[22] = Cmax in Beagle dog at 1 mg/kg, po; type: ADME, organism-based, Canis lupus familiaris; set-up: dose 1 mg/kg, route po; conditions: in vivo
[23] = Oral bioavailability in Beagle dog at 1 mg/kg; type: ADME, organism-based, Canis lupus familiaris; conditions: in vivo
[24] = tested on: Mus musculus; test: Analgesic activity against formalin-induced pain in FVB mouse model assessed as reduction in formalin-induced pain at 10 mg/kg, po administered for 120 mins prior to formalin challenge and measured after 11 to 40 mins; type: functional, organism-based; conditions: time 131-160 min
[25] = tested on: Mus musculus; test: Antinociceptive activity against aconitine-induced pain in FVB mouse model expressing human Nav 1.7 I848T mutant assessed as reduction in nociceptive behavior at 0.1 mg/kg, po administered 120 mins prior to aconitine administration and measured after 70 mins relative to control; type: functional; set-up: scale not given: the % may be the effect or the level left; conditions: time 190 min, 3.167 h
[26] = tested on: Mus musculus; test: Antinociceptive activity against aconitine-induced pain in FVB mouse model expressing human Nav 1.7 I848T mutant assessed as reduction in nociceptive behavior at 0.3 mg/kg, po administered 120 mins prior to aconitine administration and measured after 70 mins relative to control; type: functional; set-up: scale not given: the % may be the effect or the level left; conditions: time 190 min, 3.167 h
[27] = tested on: Mus musculus; test: Antinociceptive activity against aconitine-induced pain in FVB mouse model expressing human Nav 1.7 I848T mutant assessed as reduction in nociceptive behavior at 10 mg/kg, po administered 120 mins prior to aconitine administration and measured after 70 mins relative to control; type: functional; set-up: scale not given: the % may be the effect or the level left; conditions: time 190 min, 3.167 h
[28] = Drug concentration in plasma of FVB mouse model of aconitine-induced pain expressing human Nav1.7 I848T mutant at 3 mg/kg, po administered 120 mins prior to aconitine administered and measured after 70 mins by UPLC-ESI MS/MS analysis; type: ADME, organism-based; conditions: time 190 min
[29] = Drug concentration in plasma of FVB mouse model of aconitine-induced pain expressing human Nav1.7 I848T mutant at 10 mg/kg, po administered 120 mins prior to aconitine administered and measured after 70 mins by UPLC-ESI MS/MS analysis; type: ADME, organism-based; conditions: time 190 min
[30] = Drug concentration in brain of FVB mouse model of aconitine-induced pain expressing human Nav1.7 I848T mutant at 3 mg/kg, po administered 120 mins prior to aconitine administered and measured after 70 mins by UPLC-ESI MS/MS analysis; type: ADME, organism-based; conditions: time 190 min, read-out: Ct
[31] = Drug concentration in plasma of orally dosed formalin-induced FVB mouse model of pain measured after 3 hrs by UPLC-ESI […] analysis; type: ADME, organism-based; conditions: route po
[32] = Toxicity in FVB mouse assessed as tolerance; conditions: in vivo

T1 sequence (Q15858 whole entry): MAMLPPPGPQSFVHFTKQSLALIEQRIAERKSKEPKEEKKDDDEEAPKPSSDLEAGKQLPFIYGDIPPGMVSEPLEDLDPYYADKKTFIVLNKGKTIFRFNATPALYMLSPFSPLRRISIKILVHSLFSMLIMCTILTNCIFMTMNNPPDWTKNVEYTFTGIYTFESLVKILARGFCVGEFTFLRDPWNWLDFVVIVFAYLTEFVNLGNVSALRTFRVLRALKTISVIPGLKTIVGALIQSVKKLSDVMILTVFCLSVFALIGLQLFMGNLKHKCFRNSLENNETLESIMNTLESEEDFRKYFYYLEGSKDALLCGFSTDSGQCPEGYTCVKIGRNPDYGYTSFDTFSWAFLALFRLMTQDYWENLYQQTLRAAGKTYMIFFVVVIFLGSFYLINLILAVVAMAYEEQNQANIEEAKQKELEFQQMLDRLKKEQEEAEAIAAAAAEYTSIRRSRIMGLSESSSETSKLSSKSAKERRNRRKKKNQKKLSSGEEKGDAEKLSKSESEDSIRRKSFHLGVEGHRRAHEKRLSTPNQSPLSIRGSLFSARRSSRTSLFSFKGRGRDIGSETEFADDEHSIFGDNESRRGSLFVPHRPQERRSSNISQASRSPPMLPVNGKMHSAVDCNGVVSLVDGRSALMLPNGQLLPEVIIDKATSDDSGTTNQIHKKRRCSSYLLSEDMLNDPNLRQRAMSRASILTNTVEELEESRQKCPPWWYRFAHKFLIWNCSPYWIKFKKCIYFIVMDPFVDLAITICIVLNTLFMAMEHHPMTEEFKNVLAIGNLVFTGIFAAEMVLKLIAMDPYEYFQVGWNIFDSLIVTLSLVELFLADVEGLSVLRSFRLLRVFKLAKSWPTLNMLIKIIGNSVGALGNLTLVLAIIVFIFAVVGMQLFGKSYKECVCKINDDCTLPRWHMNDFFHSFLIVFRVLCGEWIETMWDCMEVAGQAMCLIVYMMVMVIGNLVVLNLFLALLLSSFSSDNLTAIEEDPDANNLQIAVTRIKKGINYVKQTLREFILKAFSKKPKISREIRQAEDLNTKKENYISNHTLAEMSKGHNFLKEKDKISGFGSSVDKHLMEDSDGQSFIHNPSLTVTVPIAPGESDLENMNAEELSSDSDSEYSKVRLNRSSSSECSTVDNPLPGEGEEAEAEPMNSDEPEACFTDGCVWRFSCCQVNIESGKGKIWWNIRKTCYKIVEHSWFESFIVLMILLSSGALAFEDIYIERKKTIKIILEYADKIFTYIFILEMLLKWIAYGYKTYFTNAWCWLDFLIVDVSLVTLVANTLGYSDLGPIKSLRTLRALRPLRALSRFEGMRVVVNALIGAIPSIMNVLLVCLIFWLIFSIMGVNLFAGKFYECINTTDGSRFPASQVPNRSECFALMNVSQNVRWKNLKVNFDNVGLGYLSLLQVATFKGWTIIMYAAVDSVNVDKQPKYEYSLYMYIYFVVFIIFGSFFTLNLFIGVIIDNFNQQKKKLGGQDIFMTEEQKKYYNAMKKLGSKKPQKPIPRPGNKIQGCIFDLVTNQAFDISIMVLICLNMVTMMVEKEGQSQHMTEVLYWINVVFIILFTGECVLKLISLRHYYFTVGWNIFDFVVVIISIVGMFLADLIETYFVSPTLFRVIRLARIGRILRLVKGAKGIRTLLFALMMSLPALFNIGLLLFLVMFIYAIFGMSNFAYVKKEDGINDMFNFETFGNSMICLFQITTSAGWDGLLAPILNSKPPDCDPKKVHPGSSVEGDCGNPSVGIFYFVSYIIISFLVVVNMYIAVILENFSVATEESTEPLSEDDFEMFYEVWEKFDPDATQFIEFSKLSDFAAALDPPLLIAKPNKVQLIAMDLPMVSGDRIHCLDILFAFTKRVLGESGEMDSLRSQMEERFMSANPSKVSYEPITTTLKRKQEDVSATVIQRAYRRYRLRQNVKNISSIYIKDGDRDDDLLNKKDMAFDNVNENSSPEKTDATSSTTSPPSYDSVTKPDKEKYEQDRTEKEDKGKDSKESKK
Sodium channel protein type 5 subunit alpha, sequence (Q14524 whole entry): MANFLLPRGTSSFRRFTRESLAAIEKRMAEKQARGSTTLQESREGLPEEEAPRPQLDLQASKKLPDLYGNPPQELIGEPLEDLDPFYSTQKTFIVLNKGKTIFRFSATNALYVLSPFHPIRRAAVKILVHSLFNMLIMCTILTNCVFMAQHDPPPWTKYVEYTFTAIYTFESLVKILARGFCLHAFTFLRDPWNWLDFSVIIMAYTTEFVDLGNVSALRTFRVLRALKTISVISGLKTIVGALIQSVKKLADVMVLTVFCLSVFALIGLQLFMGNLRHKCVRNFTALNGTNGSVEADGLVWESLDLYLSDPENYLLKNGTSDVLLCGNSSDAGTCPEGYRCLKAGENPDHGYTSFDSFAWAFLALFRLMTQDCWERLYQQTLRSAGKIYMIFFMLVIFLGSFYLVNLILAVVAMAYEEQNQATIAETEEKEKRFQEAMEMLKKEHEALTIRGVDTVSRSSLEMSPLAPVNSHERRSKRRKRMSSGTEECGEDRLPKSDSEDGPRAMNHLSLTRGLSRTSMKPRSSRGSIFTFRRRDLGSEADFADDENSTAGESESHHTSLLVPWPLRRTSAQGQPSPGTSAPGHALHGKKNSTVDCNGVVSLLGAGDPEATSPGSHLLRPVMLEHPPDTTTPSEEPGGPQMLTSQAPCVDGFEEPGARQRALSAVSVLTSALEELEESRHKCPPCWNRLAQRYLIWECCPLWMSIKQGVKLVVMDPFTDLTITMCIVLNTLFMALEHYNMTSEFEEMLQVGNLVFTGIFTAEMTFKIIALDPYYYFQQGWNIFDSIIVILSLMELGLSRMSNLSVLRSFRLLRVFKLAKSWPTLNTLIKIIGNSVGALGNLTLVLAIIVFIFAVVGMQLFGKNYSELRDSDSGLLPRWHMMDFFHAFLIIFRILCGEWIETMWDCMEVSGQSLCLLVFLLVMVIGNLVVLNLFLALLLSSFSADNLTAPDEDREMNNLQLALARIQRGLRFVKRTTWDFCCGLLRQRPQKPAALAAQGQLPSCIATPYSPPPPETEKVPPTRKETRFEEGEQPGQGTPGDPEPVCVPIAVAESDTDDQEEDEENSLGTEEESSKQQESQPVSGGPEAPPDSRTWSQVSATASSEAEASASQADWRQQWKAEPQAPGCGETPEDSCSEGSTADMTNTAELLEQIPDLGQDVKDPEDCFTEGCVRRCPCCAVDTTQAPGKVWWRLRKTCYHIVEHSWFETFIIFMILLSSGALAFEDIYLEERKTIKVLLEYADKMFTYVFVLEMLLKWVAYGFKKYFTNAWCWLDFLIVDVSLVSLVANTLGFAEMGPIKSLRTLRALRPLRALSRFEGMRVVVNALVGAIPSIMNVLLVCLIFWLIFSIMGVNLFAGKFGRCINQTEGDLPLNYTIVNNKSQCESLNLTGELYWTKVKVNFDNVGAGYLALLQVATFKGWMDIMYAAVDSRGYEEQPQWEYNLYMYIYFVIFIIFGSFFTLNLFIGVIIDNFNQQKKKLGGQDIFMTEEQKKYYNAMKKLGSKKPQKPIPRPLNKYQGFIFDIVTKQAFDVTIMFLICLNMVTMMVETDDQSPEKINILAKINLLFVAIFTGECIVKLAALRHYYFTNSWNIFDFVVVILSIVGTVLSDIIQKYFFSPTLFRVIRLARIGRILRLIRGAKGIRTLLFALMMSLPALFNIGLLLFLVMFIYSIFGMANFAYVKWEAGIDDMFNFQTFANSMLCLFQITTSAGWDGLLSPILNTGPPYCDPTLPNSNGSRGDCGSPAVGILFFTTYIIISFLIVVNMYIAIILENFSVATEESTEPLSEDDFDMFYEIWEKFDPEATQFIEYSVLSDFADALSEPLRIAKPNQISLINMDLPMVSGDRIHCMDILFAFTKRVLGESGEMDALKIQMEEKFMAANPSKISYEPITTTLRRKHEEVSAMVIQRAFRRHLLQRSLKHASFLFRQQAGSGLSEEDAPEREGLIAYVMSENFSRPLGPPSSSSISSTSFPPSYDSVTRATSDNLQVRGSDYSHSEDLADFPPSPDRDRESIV

CC1(COc2cc(F)c(C(=O)NS(=O)(=O)C3CC3)cc2C2CC2)CCC2(CC1)CC2
IC50 [1]: 15 nM | IC50 [2]: 0.6 nM | Papp A→B [3]: 9 ×10⁻⁶ cm/s | fraction unbound [4]: 0.001 | fraction unbound [5]: 0.001 | logD [6]: 2.1 | IC50 [7]: 50 nM | IC50 [8]: 2 nM | IC50 [9]: 38 nM | efflux ratio [10]: 1 | fraction unbound [11]: 0.001 | Papp A→B [12]: 3.7 ×10⁻⁶ cm/s | Papp A→B [13]: 5.1 ×10⁻⁶ cm/s | inhibition [14]: 80% | t1/2 [15]: 1.5 h | Vdss [16]: 0.41 L/kg | Cmax [17]: 22 µM | clearance [18]: 1.2 mL/min/kg | bioavailability [19]: 49% | clearance [20]: 0.3 mL/min/kg | half-life [21]: 6 h | Cmax [22]: 9 µM | bioavailability [23]: 68% | Activity [24]: Active | Activity [25]: 10% | Activity [26]: 78% | Activity [27]: 99.5% | concentration at 3.167 h [28]: 25 µM | concentration at 3.167 h [29]: 79 µM | concentration at 3.167 h [30]: 1.9 µM | concentration at 3 h [31]: 50 µM | Activity [32]: Non-Toxic
